Data taken from patent publication US12071404B2, “Aza (indole)-, benzothiophene-, and benzofuran-3-sulfonamides” (UCB Pharma GmbH, priority 2016, dated 2024).

target: GPR17 (Homo sapiens, UniProt Q13304); test: Calcium mobilization functional assay (GPR17 Ca2+ assay); format: cell-based; set-up: host or cells: Flp-In T-REx CHO; details: CHO hGPR17 cells, inhibition of 50 nM MDL29,951, Calcium 5 dye, FLIPR; read-out: Ca2+ assay pIC50 (converted)
Procedure: Flp-In T-REx CHO cells stably expressing human GPR17 receptor (CHO hGPR17) from Evi Kostenis' lab (Bonn University, Germany) were cultured at 37° C. in a humidified atmosphere of 5% CO2. Cells were grown in DMEM with Nutrient Mixture F-12 supplemented with hygromycin B (500 μg/mL) and blasticidin (30 μg/mL). Expression from the Flp-In locus was induced by treatment with doxycycline (1 μg/mL) for 16-20 h prior assays.
GPR17 is a G-protein coupled receptor. GPR17 activation triggers Gq-type G-protein signaling resulting in endoplasmic reticulum calcium (Ca^2+) stores release in cytosol which can be measured using Calcium 5 dye, a fluorescent indicator dye of cytosolic Ca^2+ levels. All Examples were tested in GPR17 Ca^2+ assay to determine (screen) their GPR17 modulating activity.
CHO hGPR17 were defrosted and seeded at a density of 20,000 cells per well into black 384-well plates with clear bottom. Cells were incubated overnight at 37° C. in a humidified atmosphere of 5% CO2. Sixteen to twenty hours after seeding, CHO hGPR17 were loaded for 60 min with Calcium 5 dye, a cytosolic Ca^2+ indicator fluorescent dye, according to manufacturer's instructions. Fluorescent signal relative to cytosolic Ca^2+ concentration was recorded over time at room temperature in FLIPR Tetra reader. […] Then, 50 nM MDL29,951, a GPR17 agonist, was added to the cells. Inhibitory effects of varying concentrations test compounds were measured and resulting plC50s were determined. […] Analysis and curve fitting were performed in ActivityBase XE using XLfit 4-parameter logistic equation y=A+((B−A)/(1+((C/x)^D))) where A, B, C and D stand for minimum y, maximum y, IC50 and slope, respectively.
The activities of the Example compounds tested are depicted in the table in Section B2B below. The activity ranges A, B and C refer to plC50 values in the Ca^2+ assay as follows: “A”: plC50<7.5, “B”: plC50 7.5<x≤ 8.5, “C”: plC50>8.5

Sequence of GPR17 (Q13304 whole entry): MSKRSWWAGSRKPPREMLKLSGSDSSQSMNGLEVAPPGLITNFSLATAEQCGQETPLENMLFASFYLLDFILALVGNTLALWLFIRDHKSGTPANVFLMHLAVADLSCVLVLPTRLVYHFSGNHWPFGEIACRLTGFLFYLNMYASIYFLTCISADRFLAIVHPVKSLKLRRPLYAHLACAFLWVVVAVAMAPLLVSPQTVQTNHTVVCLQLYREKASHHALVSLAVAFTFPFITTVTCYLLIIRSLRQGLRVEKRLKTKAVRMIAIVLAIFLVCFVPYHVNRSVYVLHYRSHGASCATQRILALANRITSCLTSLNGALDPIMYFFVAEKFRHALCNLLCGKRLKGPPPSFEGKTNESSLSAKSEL

With N#Cc1ccc(NS(=O)(=O)c2c[nH]c3cc(F)c(F)cc23)cc1 [Compound I-120, N-(4-cyanophenyl)-5,6-difluoro-1H-indole-3-sulfonamide] as the molecule, how does the IC50 read?
The IC50 was greater than 31.6 nM.

For O=S(=O)(Nc1ccc2c(c1)OCO2)c1c[nH]c2cc(Cl)ccc12 [Compound I-5, N-(1,3-benzodioxol-5-yl)-6-chloro-1H-indole-3-sulfonamide], which IC50 is on record?
The IC50 was greater than 31.6 nM.

For O=S(=O)(Nc1cccc2nsnc12)c1c[nH]c2c(Br)cccc12 [Compound I-111, N-(2,1,3-benzothiadiazol-4-yl)-7-bromo-1H-indole-3-sulfonamide], which IC50 is on record?
Its IC50 is greater than 31.6 nM.

How did the IC50 turn out when COc1cccc2c(S(=O)(=O)Nc3ccc(C#N)cc3F)c[nH]c12 [Compound I-115, N-(4-cyano-2-fluorophenyl)-7-methoxy-1H-indole-3-sulfonamide] was run?
The IC50 was greater than 31.6 nM.

With O=S(=O)(Nc1ccc2nsnc2c1)c1c[nH]c2c3c(ccc12)CCC3 [Compound I-158, N-(2,1,3-benzothiadiazol-5-yl)-1,6,7,8-tetrahydrocyclopenta[g]indole-3-sulfonamide] as the molecule, how does the IC50 read?
Its IC50 is greater than 31.6 nM.

Which IC50 does the source give for O=S(=O)(Nc1ncccc1F)c1c[nH]c2cc(Cl)ccc12 [Compound I-128, 6-chloro-N-(3-fluoropyridin-2-yl)-1H-indole-3-sulfonamide] here?
The IC50 was greater than 31.6 nM.

With O=S1(=O)CCc2ccc(NS(=O)(=O)c3c[nH]c4cc(Cl)ccc34)cc21 [Compound I-10, 6-chloro-N-(1,1-dioxido-2,3-dihydro-1-benzothiophen-6-yl)-1H-indole-3-sulfonamide] as the molecule, how does the IC50 read?
Its IC50 is greater than 31.6 nM.

For CS(=O)(=O)c1ccc2c(S(=O)(=O)Nc3cc(F)ccc3F)c[nH]c2c1 [Compound I-28, N-(2,5-difluorophenyl)-6-(methylsulfonyl)-1H-indole-3-sulfonamide], which IC50 is on record?
The IC50 was greater than 31.6 nM.

How did the IC50 turn out when N#Cc1ccc2c(S(=O)(=O)Nc3cc4c(cc3F)OC(F)(F)O4)c[nH]c2c1 [Compound I-68, 6-cyano-N-(2,2,6-trifluoro-1,3-benzodioxol-5-yl)-1H-indole-3-sulfonamide] was run?
Its IC50 is greater than 31.6 nM.

For O=S(=O)(Nc1cc2c(cc1F)OC(F)(F)O2)c1c[nH]c2c1ccc1cccnc12 [Compound I-70, N-(2,2,6-trifluoro-1,3-benzodioxol-5-yl)-1H-pyrrolo[3,2-h]quinoline-3-sulfonamide], which IC50 is on record?
The IC50 was greater than 31.6 nM.

For N#Cc1ccc(NS(=O)(=O)c2c[nH]c3c4c(ccc23)CCC4)cc1F [Compound I-149, N-(4-cyano-3-fluorophenyl)-1,6,7,8-tetrahydrocyclopenta[g]indole-3-sulfonamide], which IC50 is on record?
Its IC50 is 3.16 to 31.6 nM.

With O=S(=O)(Nc1cc(F)cc(F)c1)c1c[nH]c2nc(Br)ccc12 [Compound I-89, 6-bromo-N-(3,5-difluorophenyl)-1H-pyrrolo[2,3-b]pyridine-3-sulfonamide] as the molecule, how does the IC50 read?
Its IC50 is greater than 31.6 nM.

How did the IC50 turn out when O=S(=O)(Nc1cccc(F)c1Cl)c1c[nH]c2cc(Cl)ccc12 [Compound I-23, 6-chloro-N-(2-chloro-3-fluorophenyl)-1H-indole-3-sulfonamide] was run?
Its IC50 is greater than 31.6 nM.

How did the IC50 turn out when COc1cccc(NS(=O)(=O)c2c[nH]c3cc(Cl)ccc23)n1 [Compound I-58, 6-chloro-N-(6-methoxypyridin-2-yl)-1H-indole-3-sulfonamide] was run?
The IC50 was greater than 31.6 nM.

How did the IC50 turn out when O=S(=O)(Nc1cc(F)ccc1F)c1c[nH]c2ncc(I)cc12 [Compound I-81, N-(2,5-difluorophenyl)-5-iodo-1H-pyrrolo[2,3-b]pyridine-3-sulfonamide] was run?
The IC50 was greater than 31.6 nM.

O=S(=O)(Nc1ccc(C(F)(F)F)cn1)c1c[nH]c2cc(Cl)ccc12 [Compound I-211, 6-chloro-N-[5-(trifluoromethyl)pyridin-2-yl]-1H-indole-3-sulfonamide] was tested. Which IC50 did it give?
Its IC50 is greater than 31.6 nM.

COc1c(Cl)ccc2c(S(=O)(=O)Nc3cc(F)c(F)cc3F)c[nH]c12 [Compound I-196, 6-chloro-7-methoxy-N-(2,4,5-trifluorophenyl)-1H-indole-3-sulfonamide] was tested. Which IC50 did it give?
Its IC50 is greater than 31.6 nM.

For O=S(=O)(Nc1cc(Cl)cc(Cl)n1)c1c[nH]c2cc(Cl)ccc12 [Compound I-40, 6-chloro-N-(4,6-dichloropyridin-2-yl)-1H-indole-3-sulfonamide], which IC50 is on record?
The IC50 was greater than 31.6 nM.

With O=S(=O)(Nc1ccc(I)cc1F)c1c[nH]c2ncc(I)cc12 [Compound I-101, N-(2-fluoro-4-iodophenyl)-5-iodo-1H-pyrrolo[2,3-b]pyridine-3-sulfonamide] as the molecule, how does the IC50 read?
The IC50 was greater than 31.6 nM.

Cc1ccc(NS(=O)(=O)c2c[nH]c3cc(Cl)ccc23)cc1F [Compound I-7, 6-chloro-N-(3-fluoro-4-methylphenyl)-1H-indole-3-sulfonamide] was tested. Which IC50 did it give?
The IC50 was greater than 31.6 nM.

With COC(=O)c1ccc(NS(=O)(=O)c2c[nH]c3cc(Cl)ccc23)cc1 [Compound I-6, methyl 4-{[(6-chloro-1H-indol-3-yl)sulfonyl]amino}benzoate] as the molecule, how does the IC50 read?
Its IC50 is greater than 31.6 nM.

Cc1ccc2c(S(=O)(=O)Nc3ccc(C#N)cc3)c[nH]c2c1 [Compound I-20, N-(4-cyanophenyl)-6-methyl-1H-indole-3-sulfonamide] was tested. Which IC50 did it give?
The IC50 was 3.16 to 31.6 nM.

Which IC50 does the source give for N#Cc1ccc(NS(=O)(=O)c2c[nH]c3ccccc23)c(F)c1 [Compound I-105, N-(4-cyano-2-fluorophenyl)-1H-indole-3-sulfonamide] here?
Its IC50 is greater than 31.6 nM.

Which IC50 does the source give for O=S(=O)(Nc1ccc(F)cc1F)c1c[nH]c2ncc(I)cc12 [Compound I-82, N-(2,4-difluorophenyl)-5-iodo-1H-pyrrolo[2,3-b]pyridine-3-sulfonamide] here?
Its IC50 is greater than 31.6 nM.

With N#Cc1cc(F)c(NS(=O)(=O)c2c[nH]c3c4c(ccc23)CCC4)cc1F [Compound I-148, N-(4-cyano-2,5-difluorophenyl)-1,6,7,8-tetrahydrocyclopenta[g]indole-3-sulfonamide] as the molecule, how does the IC50 read?
The IC50 was less than 3.16 nM.

How did the IC50 turn out when Cc1cc2c(S(=O)(=O)Nc3ccc(C#N)cc3)c[nH]c2cc1Br [Compound I-18, 6-bromo-N-(4-cyanophenyl)-5-methyl-1H-indole-3-sulfonamide] was run?
Its IC50 is 3.16 to 31.6 nM.

Which IC50 does the source give for N#Cc1ccc(NS(=O)(=O)c2c[nH]c3cc(F)ccc23)cc1 [Compound I-171, N-(4-cyanophenyl)-6-fluoro-1H-indole-3-sulfonamide] here?
The IC50 was greater than 31.6 nM.

Which IC50 does the source give for O=S(=O)(Nc1cc(F)ccc1Br)c1c[nH]c2cc(Cl)ccc12 [Compound I-38, N-(2-bromo-5-fluorophenyl)-6-chloro-1H-indole-3-sulfonamide] here?
Its IC50 is greater than 31.6 nM.

O=S(=O)(Nc1cccc2c1OC(F)(F)O2)c1c[nH]c2ncc(I)cc12 [Compound I-99, N-(2,2-difluoro-1,3-benzodioxol-4-yl)-5-iodo-1H-pyrrolo[2,3-b]pyridine-3-sulfonamide] was tested. Which IC50 did it give?
Its IC50 is greater than 31.6 nM.

Which IC50 does the source give for COc1ccc(-c2ccc3c(S(=O)(=O)Nc4ccc(C#N)cc4F)c[nH]c3c2)cc1 [Compound I-232, N-(4-cyano-2-fluorophenyl)-6-(4-methoxyphenyl)-1H-indole-3-sulfonamide] here?
Its IC50 is greater than 31.6 nM.

How did the IC50 turn out when N#Cc1ccc(NS(=O)(=O)c2c[nH]c3cc(F)cc(F)c23)c(F)c1 [Compound I-168, N-(4-cyano-2-fluorophenyl)-4,6-difluoro-1H-indole-3-sulfonamide] was run?
The IC50 was 3.16 to 31.6 nM.

COCCOc1ccc2c(S(=O)(=O)Nc3cc(F)c(C#N)cc3F)c[nH]c2c1 [Compound I-146, N-(4-cyano-2,5-difluorophenyl)-6-(2-methoxyethoxy)-1H-indole-3-sulfonamide] was tested. Which IC50 did it give?
The IC50 was greater than 31.6 nM.

How did the IC50 turn out when O=S(=O)(Nc1ccc(F)cc1F)c1c[nH]c2nc(Cl)ccc12 [Compound I-86, 6-chloro-N-(2,4-difluorophenyl)-1H-pyrrolo[2,3-b]pyridine-3-sulfonamide] was run?
The IC50 was greater than 31.6 nM.

With O=S(=O)(Nc1cc(F)c(F)cc1F)c1c[nH]c2cc3c(cc12)OCO3 [Compound I-46, N-(2,4,5-trifluorophenyl)-5H-[1,3]dioxolo[4,5-f]indole-7-sulfonamide] as the molecule, how does the IC50 read?
Its IC50 is greater than 31.6 nM.

How did the IC50 turn out when N#Cc1ccc(NS(=O)(=O)c2c[nH]c3c(Cl)cccc23)cc1 [Compound I-16, 7-chloro-N-(4-cyanophenyl)-1H-indole-3-sulfonamide] was run?
Its IC50 is greater than 31.6 nM.

Which IC50 does the source give for Cc1ccc2c(S(=O)(=O)Nc3cccc4c3OCO4)c[nH]c2c1 [Compound I-29, N-(1,3-benzodioxol-4-yl)-6-methyl-1H-indole-3-sulfonamide] here?
The IC50 was greater than 31.6 nM.

O=S(=O)(Nc1ccccc1Cl)c1c[nH]c2cc(Cl)ccc12 [Compound I-26, 6-chloro-N-(2-chlorophenyl)-1H-indole-3-sulfonamide] was tested. Which IC50 did it give?
The IC50 was greater than 31.6 nM.

How did the IC50 turn out when Cc1noc(C)c1-c1ccc2c(S(=O)(=O)Nc3ccc(C#N)cc3F)c[nH]c2c1 [Compound I-234, N-(4-cyano-2-fluorophenyl)-6-(3,5-dimethyl-1,2-oxazol-4-yl)-1H-indole-3-sulfonamide] was run?
Its IC50 is greater than 31.6 nM.

O=S(=O)(Nc1cc2nsnc2cc1F)c1c[nH]c2cc(F)ccc12 [Compound I-172, 6-fluoro-N-(6-fluoro-2,1,3-benzothiadiazol-5-yl)-1H-indole-3-sulfonamide] was tested. Which IC50 did it give?
Its IC50 is 3.16 to 31.6 nM.

Which IC50 does the source give for O=S(=O)(Nc1ccc(F)cn1)c1c[nH]c2cc(Cl)ccc12 [Compound I-62, 6-chloro-N-(5-fluoropyriidn-2-yl)-1H-indole-3-sulfonamide] here?
Its IC50 is greater than 31.6 nM.
